In patent US20240287025A1, “TETRAHYDROQUINOLINE (THQ) COUMPOUNDS” (Centre National de la Recherche Scientifique, priority 2021, published 2024):

Assays:
Brd4 BD1 = Brd4 BD1 (Homo sapiens (Human), UniProt O60885); assay: HTRF evaluation of bromodomain inhibitors, Brd4 BD1; type: binding; details: H4ac4 peptide 50 nM, 4 h at 4° C.
Description: (§1) HTRF reagents and buffers were purchased from Cisbio Bioassays. The assay used a terbium (Ill) cryptate donor reagent conjugated to an anti-GST antibody (MAb anti-GST-Tb; GSTTLA), a streptavidin-conjugated acceptor reagent (streptavidin-d2) and Cisbio proprietary buffers (EPlgeneous Binding Domain Diluent and Detection buffer, respectively). GST-tagged bromodomains (BDs) were expressed in E. coli and purified using standard procedures. Incubation of GST-tagged BDs with biotinylated acetylated H4 peptide (H4K5acK8acK12acK16ac, here named H4ac4) brings the donor and acceptor into close proximity and allows for a FRET reaction. GST-tagged proteins in 25 mM Hepes pH 7.5, 150 mM NaCl, 0.5 mM DTT were assayed at a final concentration of 5 nM. Biotinylated H4ac4 peptides were used at a final concentration of 50, 600 nM in assays involving Brd4 BD1, Brd4 BD2, respectively. The antibody-conjugated donor was used at 0.5 nM and the streptavidin-conjugated acceptor was used at ⅛ of the H4ac4 peptide concentration. Inhibitors were tested by performing an eleven-point dilution series with a maximal final concentration of […]. These concentrations allowed a fixed DMSO concentration at 0.2%, critical for a Z′ factor ≥0.8. Components were incubated at 4° C. for 4 h (BD1) or for 24 h (BD2). Experiments were performed in 384-well white plates (Greiner ref. 781080) and analyzed in a ClarioStar plate reader (BMG LABTECH, excitation at 330 nm and emission at 620 and 665 nm, corresponding to the donor and acceptor emission peaks, respectively; the 665/620 ratio is used to calculate the specific HTRF signal) with an integration delay of 60 μs and an integration time of 400 μs.

[1] = system: LPS-stimulated J774 mouse macrophages cells; assay: RNA sequencing, gene expression profiles of LPS-stimulated cells; type: cell-based; details: 10 μM, 6 h, RNAseq
Description: Experimental procedure: RNA was extracted from 5 million of LPS-stimulated J774 mouse macrophages cells treated for 6 h with DMSO (negative control), reference iBETs (JQ1 and iBET726, 1 μM) and lead compounds (MLE83 and JUP102, 10 μM) using Trizol (Invitrogen) according to manufacturer's instructions. RNA sequencing was subcontracted to BGI Genomics ([…] Sequencing Technology). FASTQ sequencing files were aligned to mouse genome (GRCm39 assembly) using STAR (v2.7.1a). Bam files were counted using HTSeq framework (v0.11.2). Reads normalization and differential analysis was performed suing SARTools and DESeq2 (v1.22.2) R packages. Genes were considered as differentially expressed when |log 2FC|>1 AND p value <0.05 between control and treated conditions. Gene Set Enrichment Analysis was performed using GSEA v4.2.1 software against the hallmark v7.5 gene sets from the Broad Institute Molecular Signature Database. A detailed description of GSEA methodology and interpretation is provided online (http://www.broadinstitute.org/gsea/doc/GSEAUserGui-deFrame.html).

Brd4 BD2 = Brd4 BD2 (Homo sapiens (Human), UniProt O60885); assay: HTRF evaluation of bromodomain inhibitors, Brd4 BD2; type: binding; details: for IC50: HTRF, H4ac4 peptide 600 nM, 24 h at 4° C.; for Selectivity BD2/BD1: ratio of the BD1 and BD2 IC50
Description: as §1

J774 mouse macrophages = assay: Cytotoxicity and anti-inflammatory activity (IL-6/TNFα, AI score) after iBET/LPS treatment; type: cell-based; details: AI score versus cytotoxicity, FIG. 7
Description: J774 mouse macrophages were cultured in DMEM 10% Fetal Calf Serum (FCS) 1% penicillin and streptomycin at 37° C. 5% CO2. […]. Cells were then seeded at 250,000 cells/ml and treated with 1 μM, 10 μM and 100 μM for each iBET and, then, after 30 min, with 100 μg/ml LPS (lipopolysaccharides, Cell Signaling Technology ref: 14011S) to induce inflammatory response. After 24 h, cytotoxicity was evaluated using CytoTox-ONE™ Homogeneous Membrane Integrity Assay and/or CellTiter 96 Non-radioactive Cell Proliferation Assay (Promega) according to manufacturer's instructions. IL6 and TNFα secretion were assessed using respectively IL-6 Mouse ELISA assay and TNFα Mouse ELISA assay (Invitrogen) according to manufacturer's instructions.
Experimental procedure: J774 mouse macrophages were cultured in DMEM 10% Fetal Calf Serum (FCS) 1% penicillin and streptomycin at 37° C. 5% CO2. […] After 24 h, cytotoxicity was evaluated using the Cell Proliferation Kit I (Roche) according to manufacturer's instructions. IC50 were calculated using GraphPad (Prism) using non linear regression curve fit. IL6 and TNF[…] secretion was assessed using respectively IL-6 Mouse and TNFα Mouse ELISA assay (Invitrogen) on cell culture supernatants according to manufacturer's instructions. […]

With C=CCCCC(=O)Nc1ccc(-c2ccc3c(c2)[C@@H](n2cc(-c4ccccc4)nn2)[C@H](C)[C@H](CC)N3C(C)=O)cc1 [XD, N-(4-((2S,3R,4S)-1-acetyl-2-ethyl-3-methyl-4-(4-phenyl-1H-1,2,3-triazol-1-yl)-1,2,3,4-tetrahydroquinolin-6-yl)phenyl)hex-5-enamide] the IC50 (Brd4 BD1) was 562 nM, the “GSEA analysis, iBET-associated cellular responses” value [1] was “reduces inflammatory response and MYC signaling” and the “number of genes impacted, times fewer than JUP102” value [1] was ~10 times. For the same compound, the IC50 (Brd4 BD2) was 620 nM, the “Selectivity BD2/BD1” value (Brd4 BD2) was 1.1 and the inflammatory activity/toxicity ratio (J774 mouse macrophages) was “best inflammatory activity/toxicity ratio”.

With C#CCOCCOCCOCc1cn([C@@H]2c3cc(C(=O)OC)ccc3N(C(C)=O)[C@@H](CC)[C@H]2C)nn1 [XQ] the IC50 (Brd4 BD1) was 16600 nM, the “GSEA analysis, iBET-associated cellular responses” value [1] was “reduces inflammatory response and MYC signaling” and the IC50 (Brd4 BD2) was 1490 nM. For the same compound, the “Selectivity BD2/BD1” value (Brd4 BD2) was 11.2 and the inflammatory activity/toxicity ratio (J774 mouse macrophages) was “best inflammatory activity/toxicity ratio”.
